The results in this text go back to patent US11787799B2 (priority 2015, dated 2023).

Data set [1] has as its system Measles. Description: microbe, parasite or virus in culture. In kind it is cell-based. The following applies: Measles morbillivirus, Vero 76, read-out: EC50 Measles.
Data set [2] is described as follows: in vitro. The following applies: African green monkey.
Data set [3] relates to Influenza A H1N1. Description: microbe, parasite or virus in culture. The data set is classed as cell-based. The note with it: Influenza A virus, H1N1, MDCK, read-out: EC50 Influenza A H1N1.
The test system of data set [4] is RSV (resp syncitial virus). Description: microbe, parasite or virus in culture. The data set is classed as cell-based. The note with it: human respiratory syncytial virus, MA104, read-out: EC50 RSV.
Data set [5] relates to Punta Toro virus. The data set is described as follows: microbe, parasite or virus in culture. The data set is classed as cell-based. The note with it: Punta Toro virus, Vero 76, read-out: EC50 Punta Toro virus.
The test system of data set [6] is Rift Valley virus. The data set is described as follows: organism not typed. The data set is classed as cell-based. The note with it: Vero 76, read-out: EC50 Rift Valley virus.
Data set [7] is described as follows: in vitro. The following applies: dog.
The subject of data set [8] is Coxsackievirus B3-H3. The data set is described as follows: microbe, parasite or virus in culture. In kind it is cell-based. The following applies: Coxsackievirus, B3 / CVB3, read-out: EC50 CVB3-H3.
The subject of data set [9] is Poliovirus 1. The data set is described as follows: microbe, parasite or virus in culture. The following applies: Enterovirus C, read-out: EC50 PV1. In kind it is cell-based.
Data set [10] has as its system Poliovirus 3. The data set is described as follows: microbe, parasite or virus in culture. In kind it is cell-based. The note with it: Enterovirus C, read-out: EC50 PV3.
The test system of data set [11] is Coxsackievirus B1. The data set is described as follows: microbe, parasite or virus in culture. The following applies: Enterovirus B, B1 / CVB1, read-out: EC50 CVB1. The data set is classed as cell-based.
The test system of data set [12] is Coxsackievirus B2. The data set is described as follows: microbe, parasite or virus in culture. The data set is classed as cell-based. The note with it: Enterovirus B, B2 / CVB2, read-out: EC50 CVB2.
Data set [13] concerns Coxsackievirus B4. Description: microbe, parasite or virus in culture. In kind it is cell-based. The following applies: Enterovirus B, B4 / CVB4, read-out: EC50 CVB4.
The test system of data set [14] is Coxsackievirus B5. The data set is described as follows: microbe, parasite or virus in culture. In kind it is cell-based. The following applies: Enterovirus B, B5 / CVB5, read-out: EC50 CVB5.
In data set [15] the test system is Enterovirus 71. The data set is described as follows: microbe, parasite or virus in culture. In kind it is cell-based. The note with it: Enterovirus A, EV71, read-out: EC50 EV71.
Data set [16] has as its system Coxsackievirus A9. The data set is described as follows: microbe, parasite or virus in culture. In kind it is cell-based. The following applies: Enterovirus B, A9, read-out: EC50 COX A9.
In data set [17] the test system is Echovirus 6. Description: microbe, parasite or virus in culture. In kind it is cell-based. The note with it: Enterovirus B, read-out: EC50 ECHO06.
Data set [18] relates to Echovirus 7. Description: microbe, parasite or virus in culture. In kind it is cell-based. The following applies: Enterovirus B, read-out: EC50 ECHO07.
In data set [19] the test system is Echovirus 9. Description: microbe, parasite or virus in culture. The data set is classed as cell-based. The note with it: Enterovirus B, read-out: EC50 ECHO09.
Data set [20] has as its system Echovirus 11. Description: microbe, parasite or virus in culture. The data set is classed as cell-based. The following applies: Enterovirus B, read-out: EC50 ECHO11.
For data set [21], the system named is Echovirus 25. Description: microbe, parasite or virus in culture. The following applies: Enterovirus B, read-out: EC50 ECHO25. The data set is classed as cell-based.
Data set [22] concerns Echovirus 30. The data set is described as follows: microbe, parasite or virus in culture. In kind it is cell-based. The note with it: Enterovirus B, read-out: EC50 ECHO30.
A short description of data set [23]: in vitro. The note with it: human.
Data set [24] concerns Yellow Fever Virus. Description: microbe, parasite or virus in culture. In kind it is cell-based. The following applies: Yellow fever virus, Vero, read-out: EC50 Yellow Fever Virus.
Data set [25] can be described thus: in vitro. The following applies: African green monkey. This is another data set of the same source.
The test system of data set [26] is Enterovirus D68/Fermon. The data set is described as follows: Antiviral assay, Enterovirus D68 strain Fermon in RD cells. The data set is classed as cell-based. The note with it: Enterovirus D.
The test system of data set [27] is Enterovirus D68/US/Mo/14-18949. Description: Antiviral assay, Enterovirus D68 strain US/Mo/14-18949 in RD cells. The data set is classed as cell-based. The note with it: Enterovirus D.
Data set [28] deals with Enterovirus D68/US/KY/14-18953. The data set is described as follows: Antiviral assay, Enterovirus D68 strain US/KY/14-18953 in RD cells. The data set is classed as cell-based. The following applies: Enterovirus D.
Data set [29] can be described thus: in vitro.

The structures appear in SMILES notation. Where two headings read alike, the source gives them in different places. Bounds are passed on as bounds.

For `Nc1cc2nc[nH]c2c(=O)[nH]1` [3-Deazaguanine, reference compound], the 50% effective concentration (EC50) (commonly the midpoint of the concentration-response curve) in [1] came to 2.4 µM. The molecule also displayed a CC50 in data set [2] of over 100 µM.
Turning to `NC(=O)c1ncn([C@@H]2O[C@H](CO)[C@@H](O)[C@H]2O)n1` [Ribavirin, reference compound], the EC50 in data set [3] was found to be 7.5 µM; in data set [4], 12 µM; in data set [5], 11 µM; in data set [6], 9.1 µM. This molecule had a CC50 in data set [7] of over 320 µM.
As to `CC(C)n1ncc2c(N(C(=O)c3ccc(F)cc3)C(=O)c3ccc(F)cc3)cc(-c3cccs3)nc21` [JX-039], the EC50 in data set [8] was 4.7 µM; in [9], over 10 µM; in [10], over 10 µM; in [11], 4.7 µM; in data set [12] it was 4.7 µM; in [13], over 10 µM. In addition, the half-maximal effective concentration (EC50) in data set [14] is over 10 µM; in [15], 3.2 ± 0.1 µM; in [16], 4.5 µM; in [17], 2.4 µM; in [18] it was over 10 µM; in [19], over 10 µM. The EC50 in data set [20], in [21] and in [22] was over 10 µM throughout. This molecule also yielded a CC50 in [23] of 10 µM.
`O=c1cnn([C@@H]2O[C@H](CO)[C@@H](O)[C@H]2O)c(=O)[nH]1` [Compound 6-Azauridine, 6-Azauridine, reference compound]: the EC50 in data set [24] is 0.29 µM. The same molecule gave a CC50 in data set [25] of 10 µM.
For `CC(C)n1ncc2c(NC(=O)c3ccc(F)cc3)cc(-c3cccs3)nc21` [JX-054], the EC50 was 4.7 µM in data set [8]; over 10 µM in [9]; over 10 µM in data set [10]; 4.7 µM in [11]; 4.7 µM in [12]; 4.7 µM in data set [13]. For the same molecule, the EC50 in data set [14] turned out to be 4.7 µM; in [15], 4 µM; in [16], 4.7 µM; in data set [18] it was 4.7 µM; in data set [19] it was 2.4 µM; in [20], 3.1 µM. Also, the concentration giving a half-maximal response (EC50) stood at 4.7 µM in data set [22], 2.4 µM in [26], 2.53 ± 0.23 µM in data set [27] and 3.4 ± 1.18 µM in data set [28]. In data set [29], the CC50 was determined as 50 µM.
